In patent US9718792B2, “Isoxazoline hydroxamic acid derivatives as LpxC inhibitors” (priority 2014, dated 2017):
≈ marks a conversion by molar mass, not a printed value. Read-outs that look alike come from different tables or passages of the source.

Assays:
P. aeruginosa LpxC = P. aeruginosa LpxC (Pseudomonas aeruginosa (strain ATCC 15692 / DSM 22644 / CIP 104116 / JCM 14847 / LMG 12228 / 1C / PRS 101 / PAO1), UniProt P47205); test: P. aeruginosa LpxC Inhibition Assay; assay type: biochemical; conditions: 2 μM substrate, LC-MS/MS
Outline: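 Compounds pre-incubated 30 min at room temperature with 1 nM LpxC, then 2 μM UDP-3-O-(R-3-hydroxydecanoyl)-GlcNAc added; 20 min reaction in 50 mM sodium phosphate pH 7.5, 0.005% Triton X-100, quenched with HOAc. Product quantified by LC-MS/MS against calibration curve; IC50 from four-parameter logistic fit.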

P. aeruginosa PAO1 = test: Susceptibility Testing (MIC, broth microdilution); assay type: cell-based, Pseudomonas aeruginosa; conditions: P. aeruginosa PAO1, broth microdilution, 20 hours; for MIC: Pseudomonas aeruginosa, PAO1, 20 h, read-out: PAO1 MIC
Outline: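 Broth microdilution per CLSI in cation-adjusted Mueller-Hinton broth, inoculum ~5×10^5 CFU/mL, two-fold compound dilutions (1% DMSO final). Plates incubated 20 h in ambient air at 35° C. MIC is the lowest concentration preventing visible growth, confirmed by OD 600 nm reading.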

[1] = 1 nM P. aeruginosa LpxC, read-out: PA LpxC IC50

IC50 (P. aeruginosa LpxC; [1])	MIC (P. aeruginosa PAO1)	Molecule	IC50 (P. aeruginosa LpxC; PA LpxC IC50, 1 nM P. aeruginosa LpxC)	PAO1 MIC (P. aeruginosa PAO1)
< 0.5 nM	0.18 µg/mL (≈ 0.388 µM)	C[C@@](C[C@H]1CC(c2ccc(-c3ccc(CCO)cc3)c(F)c2)=NO1)(C(=O)NO)S(C)(=O)=O [Compound 102, (R)-3-((R)-3-(2-fluoro-4′-(2-hydroxyethyl)-[1,1′-biphenyl]-4-yl)-4,5-dihydroisoxazol-5-yl)-N-hydroxy-2-methyl-2-(methylsulfonyl)]	–	–
0.6 nM	0.18 µg/mL (≈ 0.4 µM)	C[C@@](C[C@H]1CC(c2ccc(-c3ccc(CO)cc3)c(F)c2)=NO1)(C(=O)NO)S(C)(=O)=O [Compound 103, (R)-3-((R)-3-(2-fluoro-4′-(hydroxymethyl)-[1,1′-biphenyl]-4-yl)-4,5-dihydroisoxazol-5-yl)-N-hydroxy-2-methyl-2-(methylsulfonyl)propanamide]	–	–
0.5 nM	0.125 µg/mL (≈ 0.272 µM)	C[C@@](C[C@H]1CC(c2ccc(-c3ccc(CC#N)cc3)c(F)c2)=NO1)(C(=O)NO)S(C)(=O)=O [Compound 104, (R)-3-((R)-3-(4′-(cyanomethyl)-2-fluoro-[1,1′-biphenyl]-4-yl)-4,5-dihydroisoxazol-5-yl)-N-hydroxy-2-methyl-2-(methylsulfonyl)propanamide]	–	–
< 0.5 nM	0.5 µg/mL (≈ 1.04 µM)	CC(C)(O)c1ccc(-c2ccc(C3=NO[C@@H](C[C@](C)(C(=O)NO)S(C)(=O)=O)C3)cc2F)cc1 [Compound 110, (R)-3-((R)-3-(2-fluoro-4′-(2-hydroxypropan-2-yl)-[1,1′-biphenyl]-4-yl)-4,5-dihydroisoxazol-5-yl)-N-hydroxy-2-methyl-2-(methylsulfonyl)propanamide]	–	–
< 0.5 nM	1 µg/mL (≈ 2.12 µM)	C[C@@](C[C@H]1CC(c2ccc(-c3ccncc3C(F)(F)F)cc2)=NO1)(C(=O)NO)S(C)(=O)=O [Compound 111, (R)—N-hydroxy-2-methyl-2-(methylsulfonyl)-3-((R)-3-(4-(3-(trifluoromethyl)pyridin-4-yl)phenyl)-4,5-dihydroisoxazol-5-yl)propanamide]	–	–
< 0.5 nM	0.35 µg/mL (≈ 0.796 µM)	C[C@@](C[C@H]1CC(c2ccc(-c3ccncc3F)c(F)c2)=NO1)(C(=O)NO)S(C)(=O)=O [Compound 117, (R)-3-((R)-3-(3-fluoro-4-(3-fluoropyridin-4-yl)phenyl)-4,5-dihydroisoxazol-5-yl)-N-hydroxy-2-methyl-2-(methylsulfonyl)propanamide]	–	–
0.6 nM	0.5 µg/mL (≈ 1.34 µM)	CCc1ccc(C2=NO[C@@H](C[C@](C)(C(=O)NO)S(C)(=O)=O)C2)c(F)c1 [Compound 120, (R)-3-((R)-3-(4-ethyl-2-fluorophenyl)-4,5-dihydroisoxazol-5-yl)-N-hydroxy-2-methyl-2-(methylsulfonyl)propanamide]	–	–
< 0.5 nM	0.5 µg/mL (≈ 1.05 µM)	Cc1cc(C2=NO[C@@H](C[C@](C)(C(=O)NO)S(C)(=O)=O)C2)ccc1-c1ccc(C[C@@H](C)O)cc1 [Compound 121, (R)—N-hydroxy-3-((R)-3-(4′-((R)-2-hydroxypropyl)-2-methyl-[1,1′-biphenyl]-4-yl)-4,5-dihydroisoxazol-5-yl)-2-methyl-2-(methylsulfonyl)propanamide]	–	–
< 0.5 nM	0.5 µg/mL (≈ 1.01 µM)	C[C@@H](O)Cc1ccc(-c2c(F)cc(C3=NO[C@@H](C[C@](C)(C(=O)NO)S(C)(=O)=O)C3)cc2F)cc1 [Compound 122, (R)-3-((R)-3-(2,6-difluoro-4′-((R)-2-hydroxypropyl)-[1,1′-biphenyl]-4-yl)-4,5-dihydroisoxazol-5-yl)-N-hydroxy-2-methyl-2-(methylsulfonyl)propanamide]	–	–

The next lines start with the molecule.

Molecule	IC50 (P. aeruginosa LpxC; [1])	MIC (P. aeruginosa PAO1)	IC50 (P. aeruginosa LpxC; PA LpxC IC50, 1 nM P. aeruginosa LpxC)	PAO1 MIC (P. aeruginosa PAO1)
Cn1ccc(-c2ccc(C3=NO[C@@H](C[C@](C)(C(=O)NO)S(C)(=O)=O)C3)cc2F)cc1=O [Compound 108, (R)-3-((R)-3-(3-fluoro-4-(1-methyl-2-oxo-1,2-dihydropyridin-4-yl)phenyl)-4,5-dihydroisoxazol-5-yl)-N-hydroxy-2-methyl-2-(methylsulfonyl)propanamide]	–	8 µg/mL (≈ 17.7 µM)	2 nM	–
CC(C)c1cc(-c2ccc(C3=NO[C@@H](C[C@](C)(C(=O)NO)S(C)(=O)=O)C3)cc2F)ccn1 [Compound 112, (R)-3-((R)-3-(3-fluoro-4-(2-isopropylpyridin-4-yl)phenyl)-4,5-dihydroisoxazol-5-yl)-N-hydroxy-2-methyl-2-(methylsulfonyl)propanamide]	< 0.5 nM	1 µg/mL (≈ 2.16 µM)	–	–
COc1ccc(-c2ccc(C3=NO[C@@H](C[C@](C)(C(=O)NO)S(C)(=O)=O)C3)cc2F)c(C)c1 [Compound 113, (R)-3-((R)-3-(2-fluoro-4′-methoxy-2′-methyl-[1,1′-biphenyl]-4-yl)-4,5-dihydroisoxazol-5-yl)-N-hydroxy-2-methyl-2-(methylsulfonyl)propanamide]	< 0.5 nM	0.71 µg/mL (≈ 1.53 µM)	–	–
C[C@@](C[C@H]1CC(c2ccc(-c3ccc(-c4nn[nH]n4)cc3)c(F)c2)=NO1)(C(=O)NO)S(C)(=O)=O [Compound 114, (R)-3-((R)-3-(2-fluoro-4′-(2H-tetrazol-5-yl)-[1,1′-biphenyl]-4-yl)-4,5-dihydroisoxazol-5-yl)-N-hydroxy-2-methyl-2-(methylsulfonyl)propanamide]	< 0.5 nM	32 µg/mL (≈ 65.5 µM)	–	–
C[C@@H](O)Cc1ccc(-c2ccc(C3=NO[C@@H](C[C@](C)(C(=O)NO)S(C)(=O)=O)C3)cc2F)c(F)c1 [Compound 115, (R)-3-((R)-3-(2,2′-difluoro-4′-((R)-2-hydroxypropyl)-[1,1′-biphenyl]-4-yl)-4,5-dihydroisoxazol-5-yl)-N-hydroxy-2-methyl-2-(methylsulfonyl)propanamide]	< 0.5 nM	1 µg/mL (≈ 2.01 µM)	–	–
C[C@@H](O)Cc1cc(F)c(-c2ccc(C3=NO[C@@H](C[C@](C)(C(=O)NO)S(C)(=O)=O)C3)cc2F)c(F)c1 [Compound 116, (R)—N-hydroxy-2-methyl-2-(methylsulfonyl)-3-((R)-3-(2,2′,6′-trifluoro-4′-((R)-2-hydroxypropyl)-[1,1′-biphenyl]-4-yl)-4,5-dihydroisoxazol-5-yl) propanamide]	< 0.5 nM	0.5 µg/mL (≈ 0.972 µM)	–	–
Cc1cc(-c2ccc(C3=NO[C@@H](C[C@](C)(C(=O)NO)S(C)(=O)=O)C3)cc2F)cc(C)n1 [Compound 118, (R)-3-((R)-3-(4-(2,6-dimethylpyridin-4-yl)-3-fluorophenyl)-4,5-dihydroisoxazol-5-yl)-N-hydroxy-2-methyl-2-(methylsulfonyl)propanamide]	4 nM	4 µg/mL (≈ 8.9 µM)	–	–
C[C@@](C[C@H]1CC(c2ccc(-c3ccncc3F)cc2F)=NO1)(C(=O)NO)S(C)(=O)=O [Compound 119, (R)-3-((R)-3-(2-fluoro-4-(3-fluoropyridin-4-yl)phenyl)-4,5-dihydroisoxazol-5-yl)-N-hydroxy-2-methyl-2-(methylsulfonyl)propanamide]	< 0.5 nM	0.71 µg/mL (≈ 1.62 µM)	–	–
CC#Cc1ccc(C2=NO[C@@H](C[C@](C)(C(=O)NO)S(C)(=O)=O)C2)c(F)c1 [Compound 123, (R)-3-((R)-3-(2-fluoro-4-(prop-1-yn-1-yl)phenyl)-4,5-dihydroisoxazol-5-yl)-N-hydroxy-2-methyl-2-(methylsulfonyl)propanamide]	< 0.5 nM	0.25 µg/mL (≈ 0.654 µM)	–	–
(R)-3-((R)-3-(2-fluoro-4′-((R)-2-hydroxypropyl)-[1,1′-biphenyl]-4-yl)-4,5-dihydroisoxazol-5-yl)-N-hydroxy-2-methyl-2-(methylsulfonyl)propanamide [Compound 107]	0.5 nM	–	–	0.25 µg/mL
